Tests used:
PI3Kγ = PI3Kγ (Homo sapiens, UniProt P48736); test: PI3Kγ inhibitory activity (PI3-kinase HTRF assay, inhibition ratio); format: biochemical; settings: compound at 10 μmol/L; for inhibition at 10 µM: 0.5 h, read-out: PI3Kg Inhibition Ratio % (10 μM)
Protocol: For each compound synthesized in the above Examples, PI3Kγ inhibitory activity was measured.
The PI3Kγ inhibitory activity of a compound was evaluated using PI3-kinase HTRF™ assay (Millipore) according to the following procedure:
To each well of a testing plate, 5 μL of a compound solution containing 10% DMSO (40 μmol/L as the concentration of the compound), 5 μL of a substrate solution (40 μmol/L phosphatidylinositol (4,5)-bisphosphate, 20 mmol/L MgCl2, 10 mmol/L DTT), and 5 μL of an enzyme solution (80 μg/mL PI-3 kinase y, 10 mmol/L MgCl2, 5 mmol/L DTT) were added, and then allowed to stand for 10 minutes.
Then, 5 μL of a reaction solution (40 μmol/L ATP, 10 mmol/L MgCl2, 5 mmol/L DTT) was added thereto. After reacting for 30 minutes at room temperature, 5 μL of a solution containing EDTA and biotinylated phosphatidylinositol (3,4,5)-triphosphate was added to quench the reaction.
5 μL of a detection reagent containing a europium-labeled anti-GST antibody, the GST-tagged PH domain, and allophycocyanin-labeled streptavidin was added thereto. After 18 hours, HTRF (excitation wavelength: 330 nm, measured wavelengths: 620 nm and 665 nm) was measured.
HTRF ratio was defined as the value obtained by dividing the amount of fluorescence obtained at the measured wavelength 665 nm by the amount of fluorescence obtained at 620 nm. The HTRF ratio in the absence of a compound was defined as 100% activity and the HTRF ratio in the absence of PI-3 kinase y was defined as 0% activity to calculate an inhibition ratio, which was defined as the PI3Kγ inhibitory activity of a compound at 10 μmol/L.

[1] = Metabolic stability test (pooled human liver microsome); format: in vitro ADME; settings: percentage of test compound remained after 30 minutes, pooled human liver microsome 0.5 mg protein/mL, 1 mmol/L NADPH, 37° C.; for hLMS_ox(at 0.5 μM) %: compound 0.5 μM
Protocol: After a subject compound was reacted for a certain time using a pooled human liver microsome commercially available, a reacted sample and an unreacted sample are compared to calculate a survival ratio, and then the degree of metabolism in the liver was evaluated.
0.2 mL of a buffer solution (50 mmol/L of Tris-HCl in pH 7.4, 150 mmol/L of potassium chloride, and 10 mmol/L of magnesium chloride) containing a human liver microsome of 0.5 mg protein/mL was reacted in the presence of 1 mmol/L NADPH at 37° C. for 0 or 30 minutes (oxidative reaction). After reacting, 50 μL of the reaction solution was added to 100 μL of a solution of methanol/acetonitrile (1/1 (v/v)), mixed, and then centrifuged at 3000 rpm for 15 minutes. The test compound in the supernatant was quantitated with LC/MS/MS. The amount of the compound at a reaction time of 0 minute was defined as 100% and, based on that, the percentage of the test compound remained after reacting for 30 minutes was calculated.

PI3Kγ, sequence (P48736 whole entry, species assumed): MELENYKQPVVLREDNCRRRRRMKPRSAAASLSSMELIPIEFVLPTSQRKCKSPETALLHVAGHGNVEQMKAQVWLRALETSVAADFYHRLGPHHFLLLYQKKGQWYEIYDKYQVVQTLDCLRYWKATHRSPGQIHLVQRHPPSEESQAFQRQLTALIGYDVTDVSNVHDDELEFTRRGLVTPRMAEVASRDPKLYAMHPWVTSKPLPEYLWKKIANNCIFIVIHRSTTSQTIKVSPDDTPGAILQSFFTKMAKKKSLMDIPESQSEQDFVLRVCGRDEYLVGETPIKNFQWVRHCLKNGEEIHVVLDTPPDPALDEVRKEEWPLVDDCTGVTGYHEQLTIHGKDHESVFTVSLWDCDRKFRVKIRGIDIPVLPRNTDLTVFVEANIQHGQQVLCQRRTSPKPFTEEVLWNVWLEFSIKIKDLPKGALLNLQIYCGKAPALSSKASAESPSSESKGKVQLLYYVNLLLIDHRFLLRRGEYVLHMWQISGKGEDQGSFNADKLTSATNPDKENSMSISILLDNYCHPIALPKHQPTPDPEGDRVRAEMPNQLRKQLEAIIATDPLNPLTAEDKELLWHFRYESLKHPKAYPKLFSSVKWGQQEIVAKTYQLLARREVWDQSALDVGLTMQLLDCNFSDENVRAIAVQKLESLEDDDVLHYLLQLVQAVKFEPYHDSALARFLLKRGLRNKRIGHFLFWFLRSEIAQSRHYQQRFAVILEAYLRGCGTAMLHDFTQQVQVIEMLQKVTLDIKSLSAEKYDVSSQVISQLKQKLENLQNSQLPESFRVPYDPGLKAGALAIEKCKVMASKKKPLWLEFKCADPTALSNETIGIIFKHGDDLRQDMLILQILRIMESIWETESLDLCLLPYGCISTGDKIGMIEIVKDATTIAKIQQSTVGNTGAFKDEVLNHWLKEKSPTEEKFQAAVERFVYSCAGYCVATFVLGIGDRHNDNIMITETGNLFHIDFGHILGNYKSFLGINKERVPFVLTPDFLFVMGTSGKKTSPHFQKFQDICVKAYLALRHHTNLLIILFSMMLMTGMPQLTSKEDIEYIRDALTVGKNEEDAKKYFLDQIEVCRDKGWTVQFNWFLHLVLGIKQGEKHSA

SMILES | inhibition at 10 µM (PI3Kγ) [%] | further results
COc1cc(N2CCc3nc(NC(=O)Nc4ccsc4C(=O)NC(C)(C)C)sc3C2)nc(OC)n1 [Compound I-26] | ≥ 95 | 
COc1cc(N2CCc3nc(NC(=O)Nc4ccccc4C(=O)N4CCCCC4)sc3C2)nc(OC)n1 [Compound I-8] | 93 | 
COCC(C)NC(=O)c1ccccc1NC(=O)Nc1nc2c(s1)CN(c1cc(OC)nc(OC)n1)CC2 (stereo not drawn) [Compound I-18] | 94 | 
CC(C)NC(=O)c1nn(C)cc1NC(=O)Nc1nc2c(s1)CN(c1cc[nH]c(=O)c1)CC2 [Compound I-184] | 75 | hLMS_ox(at 0.5 μM) % [1]: 98.1%
COc1ccc(-c2cc(NC(=O)Nc3ccccc3C(=O)NC(C)C)nn2C)cn1 [Compound I-228] | 88 | 
COc1cc(N2CCc3nc(NC(=O)Nc4ccccc4NC(=O)C(C)(C)C)sc3C2)nc(OC)n1 [Compound I-44] | ≥ 95 | 
COc1cc(N2CCc3nc(NC(=O)Nc4cccc5c4C(=O)N(C(C)C)C5)sc3C2)nc(OC)n1 [Compound I-201] | 78 | 
COc1cc(N2CCc3nc(NC(=O)N[C@@H]4C[C@H]4C(=O)NC(C)C)sc3C2)nc(OC)n1 [Compound I-130] |  | hLMS_ox(at 0.5 μM) % [1]: 104%
COc1cc(N2CCc3nc(NC(=O)Nc4ccccc4C(=O)NC(C)(C)C#N)sc3C2)nc(OC)n1 [Compound I-25] | ≥ 95 | 
COC(=O)C(C)(C)NC(=O)c1ccccc1NC(=O)Nc1nc2c(s1)CN(c1cc(OC)nc(OC)n1)CC2 [Compound I-17] | ≥ 95 | 
CC(CO)NC(=O)c1ccccc1NC(=O)Nc1nc2c(s1)CN(c1ccnc(F)c1)CC2 (stereo not drawn) [Compound I-122] | ≥ 95 | hLMS_ox(at 0.5 μM) % [1]: 90.6%
COc1cc(N2CCc3nc(NC(=O)Nc4ccccc4C(=O)NC(C)CO)sc3C2)nc(OC)n1 (stereo not drawn) [Compound I-87] | ≥ 95 | hLMS_ox(at 0.5 μM) % [1]: 91.9%
COc1cc(N2CCc3nc(NC(=O)Nc4ccccc4S(=O)(=O)NC(C)C)sc3C2)nc(OC)n1 [Compound I-171] | 85 | 
CC(=O)c1cccc(-c2cc(NC(=O)Nc3ccccc3OCCC(C)C)nn2C)c1 [Compound I-222] | ≥ 95 | 
Cc1cc(N2CCc3nc(NC(=O)Nc4ccccc4C(=O)NC(C)C)sc3C2)nc(C#N)n1 [Compound I-181] | 79 | hLMS_ox(at 0.5 μM) % [1]: 85.9%
C[C@H](CO)NC(=O)c1ccccc1NC(=O)Nc1nc2c(s1)CN(c1ccc(C(F)(F)F)cc1)CC2 [Compound I-207] | 93 | hLMS_ox(at 0.5 μM) % [1]: 93.5%
CC(CO)NC(=O)c1ccccc1NC(=O)Nc1nc2c(s1)CN(c1ccc(F)c(F)c1)CC2 (stereo not drawn) [Compound I-118] | ≥ 95 | hLMS_ox(at 0.5 μM) % [1]: 89.8%
CC(=O)c1cccc(-c2ccc3nc(NC(=O)Nc4ccccc4OCCC(C)C)nn3c2)c1 [Compound I-217] | 88 | 
CC(C)NC(=O)c1nn(C)cc1NC(=O)Nc1nc2c(s1)CN(c1cncc(C(F)(F)F)c1)CC2 [Compound I-132] | 85 | 
COc1cc(N2CCc3nc(NC(=O)Nc4ccccc4OCC(C)C)sc3C2)nc(OC)n1 [Compound I-47] | ≥ 95 | 
COc1ccc(-c2ccc3nc(NC(=O)Nc4ccccc4OCCC(C)C)nn3c2)cn1 [Compound I-218] | 90 | 
COC(=O)c1ccccc1NC(=O)Nc1nc2c(s1)CN(c1cc(OC)nc(OC)n1)CC2 [Compound I-6] | ≥ 95 | 

SMILES | inhibition at 10 µM (PI3Kγ) [%] | further results
COc1cc(N2CCc3nc(NC(=O)Nc4ccccc4C(=O)NCCO)sc3C2)nc(OC)n1 [Compound I-85] | ≥ 95 | hLMS_ox(at 0.5 μM) % [1]: 90.2%
COc1cc(N2CCc3nc(NC(=O)Nc4ccccc4C(=O)NC(C)(C)CO)sc3C2)nc(OC)n1 [Compound I-15] | 94 | 
CO/N=C(\C)c1ccccc1NC(=O)Nc1nc2c(s1)CN(c1cc(OC)nc(OC)n1)CC2 [Compound I-196] | 83 | 
Cc1cc(N2CCc3nc(NC(=O)Nc4cn(C)nc4C(=O)NC(C)C)sc3C2)nc(Cl)n1 [Compound I-164] | 93 | 
COC(=O)c1sccc1NC(=O)Nc1nc2c(s1)CN(c1cc(OC)nc(OC)n1)CC2 [Compound I-2] | 69 | 
COc1cc(N2CCc3nc(NC(=O)Nc4ccccc4CC(C)C)sc3C2)nc(OC)n1 [Compound I-68] | ≥ 95 | 
CC(CO)NC(=O)c1ccccc1NC(=O)Nc1nc2c(s1)CN(c1cc(F)cc(F)c1)CC2 (stereo not drawn) [Compound I-119] | ≥ 95 | hLMS_ox(at 0.5 μM) % [1]: 90.8%
COC(=O)c1ccsc1NC(=O)Nc1nc2c(s1)CN(c1cc(OC)nc(OC)n1)CC2 [Compound I-1] | 79 | 
COc1cc(N2CCc3nc(NC(=O)Nc4ccccc4C(=O)CCC(C)C)sc3C2)nc(OC)n1 [Compound I-66] | ≥ 95 | 
COc1cc(N2CCc3nc(NC(=O)Nc4ccccc4C(=O)OC(C)(C)C)sc3C2)nc(OC)n1 [Compound I-3] | ≥ 95 | hLMS_ox(at 2 μM) % ([1]; compound 2 μM): 82%
COc1cc(N2CCc3nc(NC(=O)Nc4ccccc4C(O)CC(C)C)sc3C2)nc(OC)n1 (stereo not drawn) [Compound I-116] | ≥ 95 | 
COC(=O)c1ccncc1NC(=O)Nc1nc2c(s1)CN(c1cc(OC)nc(OC)n1)CC2 [Compound I-21] | 74 | 
C[C@@H](CO)NC(=O)c1ccccc1NC(=O)Nc1nc2c(s1)CN(c1ccc(C(F)(F)F)cc1)CC2 [Compound I-206] | 87 | 
O=C(Nc1nc2c(s1)CN(c1ccnc(Cl)n1)CC2)Nc1ccccc1C(=O)NCCO [Compound I-99] | ≥ 95 | hLMS_ox(at 0.5 μM) % [1]: 90.6%
COc1cc(N2CCc3nc(NC(=O)Nc4ccccc4C(=O)NN(C)C)sc3C2)nc(OC)n1 [Compound I-194] |  | PI3Kg Inhibition Ratio % (10 μM) (PI3Kγ): 92%
COc1nccc(N2CCc3nc(NC(=O)Nc4ccccc4OCCC(C)C)sc3C2)n1 [Compound I-96] | ≥ 95 | 
COc1ccc(-c2ccc3nc(NC(=O)Nc4ccccc4OCCC(C)C)sc3n2)cn1 [Compound I-220] | ≥ 95 | 
CC(=O)c1cccc(-c2ccc3nc(NC(=O)Nc4ccccc4OCCC(C)C)sc3c2)c1 [Compound I-214] | ≥ 95 | 
COc1cc(N2CCc3nc(NC(=O)Nc4ccc(F)cc4C(=O)NC(C)C)sc3C2)nc(OC)n1 [Compound I-32] | ≥ 95 | 
COc1ccc(-c2ccc3nc(NC(=O)Nc4ccccc4OCCC(C)C)sc3c2)cn1 [Compound I-215] | ≥ 95 | 
COc1cc(N2CCc3nc(NC(=O)Nc4ccccc4O)sc3C2)nc(OC)n1 [Compound I-177] | 88 | 
COc1cc(N2CCc3nc(NC(=O)Nc4ccccc4C(=O)N(C)C(C)(C)C)sc3C2)nc(OC)n1 [Compound I-11] | 94 | 

Reference: patent publication US20120071475A1, “UREA DERIVATIVES HAVING PI3K-INHIBITING ACTIVITY” (SHIONOGI & CO., LTD., priority 2009, published 2012)
